Measurements taken from patent US10806785B2, “Immunomodulator compounds and methods of use” (Incyte Corporation, priority 2016, dated 2020).

Biological target: PD-1/PD-L1 (Homo sapiens (Human), UniProt Q9NZQ7)
Test: PD-1/PD-L1 binding assay (HTRF)
Method in brief: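 Fc-tagged human PD-1 (25-167) and His-tagged PD-L1 (19-238), listed as […] and 10 nM final, preincubated 40 min with inhibitors in PBS pH 7.4, 0.05% Tween-20, 0.1% BSA, 1% DMSO, 25 °C. Eu anti-IgG/APC anti-His added, 60 min, 665/620 nm HTRF ratio; IC50 fitted from percent control activity.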

Chain of PD-1/PD-L1 (Q9NZQ7 19-238): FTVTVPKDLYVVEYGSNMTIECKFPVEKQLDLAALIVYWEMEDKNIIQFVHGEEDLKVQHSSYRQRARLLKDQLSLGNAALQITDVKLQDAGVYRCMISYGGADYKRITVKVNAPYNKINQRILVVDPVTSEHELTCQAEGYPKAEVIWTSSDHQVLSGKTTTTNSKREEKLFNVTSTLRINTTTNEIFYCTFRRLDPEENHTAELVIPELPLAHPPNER

IC50, ≤ 10 nM:
Cc1c(NC(=O)c2nc3c(n2C)CCN(C2CCC(C)(C(=O)O)CC2)C3)cccc1-c1cccc(NC(=O)c2nc3c(n2C)CCN(C)C3)c1Cl (stereo not drawn) [Example 35, 4-(2-(2′-chloro-3′-(1,5-dimethyl-4,5,6,7-tetrahydro-1H-imidazo[4,5-c]pyridine-2-carboxamido)-2-methylbiphenyl-3-ylcarbamoyl)-1-methyl-6,7-dihydro-1H-imidazo[4,5-c]pyridin-5(4H)-yl)-1-methylcyclohexanecarboxylic acid]
Cn1c(C(=O)Nc2cccc(-c3cccc(NC(=O)c4nc5c(n4C)CCN(C4CCC(O)CC4)C5)c3Cl)c2Cl)nc2c1CCN(C[C@H]1CC[C@H](C(=O)O)CC1)C2 (stereo partly drawn) [144 (compound 144-1), trans-4-((2-((2,2′-dichloro-3′-(5-(4-hydroxycyclohexyl)-1-methyl-4,5,6,7-tetrahydro-1H-imidazo[4,5-c]pyridine-2-carboxamido)-[1,1′-biphenyl]-3-yl)carbamoyl)-1-methyl-1,4,6,7-tetrahydro-5H-imidazo[4,5-c]pyridin-5-yl)methyl)cyclohexane-1-carboxylic acid]
Cc1c(NC(=O)c2nc3c(n2C)CCN(C2CCOCC2)C3)cccc1-c1cccc(NC(=O)c2nc3c(n2C)CCN(C2CCC(C)(C(=O)O)CC2)C3)c1Cl (single isomer, unassigned) [142 (compound 142-1), 4-(2-((2-chloro-2′-methyl-3′-(1-methyl-5-(tetrahydro-2H-pyran-4-yl)-4,5,6,7-tetrahydro-1H-imidazo[4,5-c]pyridine-2-carboxamido)-[1,1′-biphenyl]-3-yl)carbamoyl)-1-methyl-1,4,6,7-tetrahydro-5H-imidazo[4,5-c]pyridin-5-yl)-1-methylcyclohexane-1-carboxylic acid]
Cn1c(C(=O)Nc2cccc(-c3cccc(NC(=O)c4nc5c(n4C)CCN(C4CCOCC4)C5)c3Cl)c2Cl)nc2c1CCN(CC[C@H]1CC[C@H](C(=O)O)CC1)C2 [Example 92, trans-4-(2-(2-((2,2′-dichloro-3′-(1-methyl-5-(tetrahydro-2H-pyran-4-yl)-4,5,6,7-tetrahydro-1H-imidazo[4,5-c]pyridine-2-carboxamido)-[1,1′-biphenyl]-3-yl)carbamoyl)-1-methyl-1,4,6,7-tetrahydro-5H-imidazo[4,5-c]pyridin-5-yl)ethyl)cyclohexane-1-carboxylic acid]
C[C@H](O)CN1CCc2c(nc(C(=O)Nc3cccc(-c4cccc(NC(=O)c5nc6c(n5C)CCN(CC57CCC(C(=O)O)(CC5)C7)C6)c4Cl)c3Cl)n2C)C1 [Example 181, (S)-4-((2-(2,2′-dichloro-3′-(5-(2-hydroxypropyl)-1-methyl-4,5,6,7-tetrahydro-1H-imidazo[4,5-c]pyridine-2-carboxamido)biphenyl-3-ylcarbamoyl)-1-methyl-6,7-dihydro-1H-imidazo[4,5-c]pyridin-5(4H)-yl)methyl)bicyclo[2.2.1]heptane-1-carboxylic acid]
Cn1c(C(=O)Nc2cccc(-c3cccc(NC(=O)c4nc5c(n4C)CCN(C4CCC(O)CC4)C5)c3Cl)c2Cl)nc2c1CCN(C[C@H]1CC[C@@H](C(=O)O)CC1)C2 (stereo partly drawn) [145 (compound 145-1), cis-4-((2-((2,2′-dichloro-3′-(5-(4-hydroxycyclohexyl)-1-methyl-4,5,6,7-tetrahydro-1H-imidazo[4,5-c]pyridine-2-carboxamido)-[1,1′-biphenyl]-3-yl)carbamoyl)-1-methyl-1,4,6,7-tetrahydro-5H-imidazo[4,5-c]pyridin-5-yl)methyl)cyclohexane-1-carboxylic acid]
